Assay results taken from PubChem BioAssay (NCI).
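Interpolation was linear, between the two tested concentrations surrounding the appropriate level; five concentrations were tested over 48 hours in 96-well plates. GI50: concentration for 50% inhibition of growth. TGI denotes the concentration required for complete inhibition of growth.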

Key:
Assay in all cases: NCI-60 cell line screen, 48 h
SN12C renal = system: SN12C renal
SF-295 CNS = system: SF-295 CNS
OVCAR-4 ovarian = system: OVCAR-4 ovarian
UACC-62 melanoma = system: UACC-62 melanoma
MDA-MB-435 = system: MDA-MB-435
NCI-H460 lung = system: NCI-H460 lung
786-0 renal = system: 786-0 renal
SK-MEL-5 melanoma = system: SK-MEL-5 melanoma
HL-60(TB) leukemia = system: HL-60(TB) leukemia
K-562 leukemia = system: K-562 leukemia
SF-268 CNS = system: SF-268 CNS
SF-539 CNS = system: SF-539 CNS
DU-145 prostate = system: DU-145 prostate
HS 578T breast = system: HS 578T breast
RPMI-8226 leukemia = system: RPMI-8226 leukemia
MOLT-4 leukemia = system: MOLT-4 leukemia
IGROV1 ovarian = system: IGROV1 ovarian
MALME-3M melanoma = system: MALME-3M melanoma
M14 melanoma = system: M14 melanoma
LOX IMVI melanoma = system: LOX IMVI melanoma
HT29 colon = system: HT29 colon
T-47D breast = system: T-47D breast
HCT-15 colon = system: HCT-15 colon
UACC-257 melanoma = system: UACC-257 melanoma
A498 renal = system: A498 renal
A549 NSCLC = system: A549 NSCLC
OVCAR-8 ovarian = system: OVCAR-8 ovarian
HOP-92 NSCLC = system: HOP-92 NSCLC
NCI-H226 lung = system: NCI-H226 lung
HCC-2998 colon = system: HCC-2998 colon
U251 CNS = system: U251 CNS
MCF7 breast = system: MCF7 breast
NCI-H23 lung = system: NCI-H23 lung
TK-10 renal = system: TK-10 renal
PC-3 prostate = system: PC-3 prostate
MDA-MB-231 breast = system: MDA-MB-231 breast
MDA-MB-468 breast = system: MDA-MB-468 breast
SNB-19 CNS = system: SNB-19 CNS
HOP-62 NSCLC = system: HOP-62 NSCLC
SR leukemia = system: SR leukemia
HCT-116 colon = system: HCT-116 colon
KM12 colon = system: KM12 colon
SW-620 colon = system: SW-620 colon
COLO 205 colon = system: COLO 205 colon
SK-MEL-2 melanoma = system: SK-MEL-2 melanoma
SK-OV-3 ovarian = system: SK-OV-3 ovarian
SNB-75 CNS = system: SNB-75 CNS
CAKI-1 renal = system: CAKI-1 renal
NCI/ADR-RES ovarian = system: NCI/ADR-RES ovarian
ACHN renal = system: ACHN renal
RXF 393 renal = system: RXF 393 renal
UO-31 renal = system: UO-31 renal
SK-MEL-28 melanoma = system: SK-MEL-28 melanoma
OVCAR-5 ovarian = system: OVCAR-5 ovarian
EKVX NSCLC = system: EKVX NSCLC
CCRF-CEM leukemia = system: CCRF-CEM leukemia
BT-549 breast = system: BT-549 breast
OVCAR-3 ovarian = system: OVCAR-3 ovarian
NCI-H522 lung = system: NCI-H522 lung

COc1ccc2ncc(C#Cc3cncc(C(=O)Nc4ccc(CN5CCN(C)CC5)c(C(F)(F)F)c4)c3)n2n1
GI50 (SN12C renal): 1.37 µM | TGI (SN12C renal): 8.03 µM | GI50 (SF-295 CNS): 0.986 µM | TGI (SF-295 CNS): 15.5 µM | GI50 (OVCAR-4 ovarian): 3.89 µM | TGI (OVCAR-4 ovarian): 18.3 µM | GI50 (UACC-62 melanoma): 8.37 µM | TGI (UACC-62 melanoma): 18.2 µM | GI50 (MDA-MB-435): 0.54 µM | TGI (MDA-MB-435): 13.3 µM | GI50 (NCI-H460 lung): 0.496 µM | TGI (NCI-H460 lung): 13.1 µM | GI50 (786-0 renal): 3.53 µM | TGI (786-0 renal): 15.6 µM | GI50 (SK-MEL-5 melanoma): 4.78 µM | TGI (SK-MEL-5 melanoma): 14.9 µM | GI50 (HL-60(TB) leukemia): 0.31 µM | TGI (HL-60(TB) leukemia): 4.25 µM | GI50 (K-562 leukemia): 0.0072 µM | TGI (K-562 leukemia): 1.11 µM | GI50 (SF-268 CNS): 2.83 µM | TGI (SF-268 CNS): 18.5 µM | GI50 (SF-539 CNS): 0.196 µM | TGI (SF-539 CNS): 1.13 µM | GI50 (DU-145 prostate): 2.19 µM | TGI (DU-145 prostate): 13.4 µM | GI50 (HS 578T breast): 0.398 µM | TGI (HS 578T breast): 6.06 µM | GI50 (RPMI-8226 leukemia): 1.39 µM | TGI (RPMI-8226 leukemia): > 72 µM | GI50 (MOLT-4 leukemia): 0.356 µM | TGI (MOLT-4 leukemia): 4.07 µM | GI50 (IGROV1 ovarian): 3.81 µM | TGI (IGROV1 ovarian): > 30.2 µM | GI50 (MALME-3M melanoma): 0.384 µM | TGI (MALME-3M melanoma): 3.32 µM | GI50 (M14 melanoma): 0.569 µM | TGI (M14 melanoma): 3.12 µM | GI50 (LOX IMVI melanoma): 0.877 µM | TGI (LOX IMVI melanoma): 4.26 µM | GI50 (HT29 colon): 0.444 µM | TGI (HT29 colon): 9.45 µM | GI50 (T-47D breast): > 72 µM | TGI (T-47D breast): > 72 µM | GI50 (HCT-15 colon): 0.496 µM | TGI (HCT-15 colon): 9.8 µM | GI50 (UACC-257 melanoma): 3.8 µM | TGI (UACC-257 melanoma): 16.7 µM | GI50 (A498 renal): 14.2 µM | TGI (A498 renal): > 37.7 µM | GI50 (A549 NSCLC): 1.27 µM | TGI (A549 NSCLC): 17.7 µM | GI50 (OVCAR-8 ovarian): 4.26 µM | TGI (OVCAR-8 ovarian): 18.2 µM | GI50 (HOP-92 NSCLC): 0.238 µM | TGI (HOP-92 NSCLC): 2.9 µM | GI50 (NCI-H226 lung): 0.147 µM | TGI (NCI-H226 lung): 2.3 µM | GI50 (HCC-2998 colon): 4.16 µM | TGI (HCC-2998 colon): 14.4 µM | GI50 (U251 CNS): 9.62 µM | TGI (U251 CNS): 23.2 µM | GI50 (MCF7 breast): 0.295 µM | TGI (MCF7 breast): 3.68 µM | GI50 (NCI-H23 lung): 0.629 µM | TGI (NCI-H23 lung): 10.3 µM | GI50 (TK-10 renal): 6.03 µM | TGI (TK-10 renal): 15.6 µM | GI50 (PC-3 prostate): 3.76 µM | TGI (PC-3 prostate): 19.9 µM | GI50 (MDA-MB-231 breast): 0.61 µM | TGI (MDA-MB-231 breast): 6.53 µM | GI50 (MDA-MB-468 breast): 1.66 µM | TGI (MDA-MB-468 breast): 13 µM | GI50 (SNB-19 CNS): 9.94 µM | TGI (SNB-19 CNS): 21.5 µM | GI50 (HOP-62 NSCLC): 1.16 µM | TGI (HOP-62 NSCLC): 16.6 µM | GI50 (SR leukemia): 0.549 µM | TGI (SR leukemia): > 30.5 µM | GI50 (HCT-116 colon): 0.244 µM | TGI (HCT-116 colon): 5.55 µM | GI50 (KM12 colon): 0.0072 µM | TGI (KM12 colon): 9.17 µM | GI50 (SW-620 colon): 0.27 µM | TGI (SW-620 colon): 7.6 µM | GI50 (COLO 205 colon): 0.265 µM | TGI (COLO 205 colon): 2.34 µM | GI50 (SK-MEL-2 melanoma): 1.29 µM | TGI (SK-MEL-2 melanoma): 6.54 µM | GI50 (SK-OV-3 ovarian): 5.68 µM | TGI (SK-OV-3 ovarian): 20 µM | GI50 (SNB-75 CNS): 5.91 µM | TGI (SNB-75 CNS): 15.9 µM | GI50 (CAKI-1 renal): 1.08 µM | TGI (CAKI-1 renal): 10.5 µM | GI50 (NCI/ADR-RES ovarian): 2.23 µM | TGI (NCI/ADR-RES ovarian): 9.34 µM | GI50 (ACHN renal): 1.39 µM | TGI (ACHN renal): > 28.4 µM | GI50 (RXF 393 renal): 1.31 µM | TGI (RXF 393 renal): 8.63 µM | GI50 (UO-31 renal): 3.23 µM | TGI (UO-31 renal): 12.8 µM | GI50 (SK-MEL-28 melanoma): 2.59 µM | TGI (SK-MEL-28 melanoma): 5.8 µM | GI50 (OVCAR-5 ovarian): 0.838 µM | TGI (OVCAR-5 ovarian): 9.91 µM | GI50 (EKVX NSCLC): 1.22 µM | TGI (EKVX NSCLC): 13.3 µM | GI50 (CCRF-CEM leukemia): 0.203 µM | TGI (CCRF-CEM leukemia): > 72 µM | GI50 (BT-549 breast): 1.47 µM | TGI (BT-549 breast): 9.85 µM | GI50 (OVCAR-3 ovarian): 6.35 µM | TGI (OVCAR-3 ovarian): > 39.7 µM | GI50 (NCI-H522 lung): 1.84 µM | TGI (NCI-H522 lung): 14.1 µM
